Some test systems named below: RXF 393 renal; KM12 colon; COLO 205 colon; HOP-18 NSCLC; DLD-1 colon; U251 CNS; LOX IMVI melanoma; MCF7 breast; EKVX NSCLC; A498 renal; M19-MEL melanoma; DU-145 prostate; HS 578T breast; MDA-N; PC-3 prostate; M14 melanoma; CAKI-1 renal; MDA-MB-231 breast; T-47D breast; MDA-MB-435.
Common to all, as to test: NCI anticancer screen, dose series, 48 h

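Interpolation was linear, between the two tested concentrations surrounding the appropriate level; five concentrations were tested over 48 hours in 96-well plates. TGI marks complete inhibition of growth.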

Data on 4 compounds can be found in PubChem BioAssay (NCI).

Take `Nc1ccc2cc(S(=O)(=O)O)cc(O)c2c1N=Nc1ccc(NC(=O)Nc2ccc(N=Nc3c(N)ccc4cc(S(=O)(=O)O)cc(O)c34)c(S(=O)(=O)O)c2)cc1S(=O)(=O)O`: the TGI in the assay with RXF 393 renal, with KM12 colon, in the assay with COLO 205 colon, with HOP-18 NSCLC, with DLD-1 colon and with U251 CNS was greater than 100 µM throughout. Also, the TGI in the assay with LOX IMVI melanoma, with MCF7 breast, with EKVX NSCLC, in the assay with A498 renal and in the assay on M19-MEL melanoma was greater than 100 µM throughout.
On to `CN1C[C@H]2[C@@H](C1=O)[C@H](c1ccc([N+](=O)[O-])cc1)ON2C`, for which the TGI with COLO 205 colon, in the assay with DU-145 prostate, in the assay with HS 578T breast, in the assay on MDA-N, with PC-3 prostate and in the assay on U251 CNS was greater than 100 µM in each case. For the same compound, the TGI with M14 melanoma, in the assay with CAKI-1 renal, in the assay on LOX IMVI melanoma, in the assay with MDA-MB-231 breast, with MCF7 breast and in the assay on T-47D breast was greater than 100 µM in each case. In the assay with MDA-MB-435, this compound registered a TGI greater than 100 µM.
Regarding `COc1cc(C2C(Cl)C(=O)N2NC(=O)c2ccc(NC(C)=O)cc2)cc(Br)c1O` (stereo unspecified), the TGI in the assay with KM12 colon, with COLO 205 colon, in the assay on HOP-18 NSCLC, in the assay with DLD-1 colon, in the assay on U251 CNS and in the assay with M19-MEL melanoma was greater than 100 µM throughout.
For `COc1ccc(N2C(=O)C3c4[nH]c5ccccc5c4C4CCCCCCCC4C3C2=O)cc1` (stereo unspecified), the TGI with RXF 393 renal, in the assay on KM12 colon, in the assay on COLO 205 colon, in the assay with DU-145 prostate, in the assay on HS 578T breast and in the assay with MDA-N was greater than 10 µM in each case. Further, the TGI with PC-3 prostate, in the assay on U251 CNS, in the assay with M14 melanoma, in the assay with CAKI-1 renal, in the assay with MDA-MB-231 breast and with MCF7 breast was greater than 10 µM in each case. The TGI in the assay with EKVX NSCLC, with A498 renal, in the assay on T-47D breast and in the assay with MDA-MB-435 was greater than 10 µM each time.
